# From patent US11229664B2, “Treatment of myelosuppression” (priority 2012, dated 2022)
# Values joined by “and” are separate entries in the source; they are usually repeats but may differ in a detail not shown here. Equal entries are not always repeated.
# Tested on: BxPC-3 pancreas tumor cell line
# Experiment: BxPC-3 human pancreas tumor xenograft model: tumor weight, tumor growth inhibition (TGI)
# Type: in vivo, female athymic nude mice
# Conditions: for Tumor weight, Mean / Tumor weight, Median / Tumor weight, individual mice: Group 2: ODSH 24 mg/kg BID, IV Days 1-11, SC Days 12-end
# Description: Compounds tested in the experiment were as follows. ODSH was made by Pyramid Laboratories, Inc. (Costa Mesa, Calif.). ODSH was provided at a stock concentration of 50 mg/ml and stored at room temperature until use. ODSH was diluted in a 0.9% NaCl solution (B. Braun Medical Inc., Irvine, Calif.) to a concentration of 2.4 mg/ml to deliver 24 mg/kg, in a 10 ml/kg dose volume when administered intravenously. A concentration of 4.8 mg/ml was formulated to deliver a 24 mg/kg dose at a 5 ml/kg dose volume when administered subcutaneously. ODSH was formulated fresh prior to each dose.
# Nab-paclitaxel was manufactured by Abraxis BioScience LLC (Bridgewater, N.J.) and diluted in a 0.9% NaCl solution to a concentration of 1.5 mg/ml to deliver 15 mg/kg, in a 10 ml/kg dose volume. All standard agent preparations were made fresh prior to their administration.
# BxPC-3 cells were obtained and prepared as follows. The BxPC-3 pancreas tumor cell line was received from American Type Culture Collection (ATCC, Manassas, Va.). Cultures were maintained in RPMI 1640 medium (Hyclone, Logan, Utah) supplemented with 5% fetal bovine serum. The cells were housed in a 5% CO2 atmosphere. The cultures were expanded in tissue culture flasks at a 1:3 split ratio until a sufficient amount of cells were harvested.
# BxPC-3 Human Pancreas Tumor Xenograft Model: Female athymic nude mice per treatment condition were inoculated subcutaneously in the right flank with 0.1 ml of a 50% RPMI 1640/50% Matrigel™ (BD Biosciences, Bedford, Mass.) mixture containing a suspension of BxPC-3 tumor cells (approximately 5×10^6 cells/mouse).
# Study Director V.1.7.54k (Study Log).
# Mean tumor growth inhibition (TGI) was calculated utilizing Formula A below (deaths were not included in the TGI calculations).
# All statistical analyses in the xenograft study were performed with GraphPad Prism® v4 software.
# [1] = ANOVA with Tukey's Multiple Comparison Test, BxPC-3 xenograft
substance,measurement,setting,value
"substantially 2-O, 3-O desulfated heparin [ODSH]","Difference in tumor weight compared to vehicle control, Day 26",[1],No significant difference
same,"Difference in tumor weight compared to vehicle control, Day 36",[1],significant difference
same,"Tumor weight, Mean",Day 1,122.4 mg
same,"Tumor weight, Median",Day 1,22.9 mg
same,"Tumor weight, individual mice",Day 1,114 mg and 116 mg and 172 mg and 94 mg and 131 mg and 106 mg and 125 mg and 143 mg and 129 mg and 140 mg
same,"Tumor weight, Mean",Day 4,134.0 mg
same,"Tumor weight, Median",Day 4,28.6 mg
same,"Tumor weight, individual mice",Day 4,98 mg and 110 mg and 141 mg and 97 mg and 181 mg and 135 mg and 130 mg and 144 mg and 133 mg
same,"Tumor weight, Mean",Day 8,146.0 mg
same,"Tumor weight, Median",Day 8,40.4 mg
same,"Tumor weight, individual mice",Day 8,118 mg and 144 mg and 183 mg and 125 mg and 222 mg and 126 mg and 155 mg and 157 mg and 148 mg
same,"Tumor weight, Mean",Day 11,187.6 mg
same,"Tumor weight, Median",Day 11,162.1 mg
same,"Tumor weight, individual mice",Day 11,288 mg and 142 mg and 175 mg and 243 mg and 146 mg and 252 mg and 137 mg and 140 mg and 203 mg
same,"Tumor weight, Mean",Day 15,263.0 mg
same,"Tumor weight, Median",Day 15,250.0 mg
same,"Tumor weight, individual mice",Day 15,340 mg and 224 mg and 263 mg and 348 mg and 237 mg and 321 mg and 208 mg and 218 mg and 264 mg
same,"Tumor weight, Mean",Day 18,338.5 mg
same,"Tumor weight, Median",Day 18,304.7 mg
same,"Tumor weight, individual mice",Day 18,489 mg and 291 mg and 288 mg and 419 mg and 256 mg and 415 mg and 318 mg and 278 mg and 352 mg
same,"Tumor weight, Mean",Day 22,453.8 mg
same,"Tumor weight, Median",Day 22,425.4 mg
same,"Tumor weight, individual mice",Day 22,622 mg and 360 mg and 400 mg and 556 mg and 402 mg and 551 mg and 449 mg and 326 mg and 515 mg
same,"Tumor weight, Mean",Day 26,616.2 mg
same,"Tumor weight, Median",Day 26,551.3 mg
same,"Tumor weight, individual mice",Day 26,894 mg and 478 mg and 529 mg and 770 mg and 573 mg and 724 mg and 524 mg and 394 mg and 766 mg
same,"TGI (mean tumor growth inhibition), Day 26","Day 26 vs Day 1, compared to vehicle control, BxPC-3 xenograft, ODSH 24 mg/kg BID, oxaliplatin 10 mg/kg, gemcitabine 80 mg/kg (Table 1)",11.5%
same,"Tumor weight, Mean",Day 30,882.3 mg
same,"Tumor weight, Median",Day 30,856.4 mg
same,"Tumor weight, individual mice",Day 30,"1,083 mg and 756 mg and 893 mg and 1,201 mg and 820 mg and 945 mg and 764 mg and 555 mg and 1,109 mg"
same,"Tumor weight, Mean",Day 33,"1,038.6 mg"
same,"Tumor weight, Median",Day 33,979.8 mg
same,"Tumor weight, individual mice",Day 33,"1,218 mg and 999 mg and 961 mg (2×) and 1,309 mg and 1,087 mg and 871 mg and 733 mg and 1,340 mg"
same,"Tumor weight, Median",Day 36,"1,151.5 mg"
same,"Tumor weight, individual mice",Day 36,"1,450 mg and 1,153 mg and 1,150 mg (2×) and 1,654 mg and 1,376 mg and 1,037 mg and 836 mg and 1,823 mg"
same,"TGI (mean tumor growth inhibition), Day 36","Day 36 vs Day 1, compared to vehicle control, BxPC-3 xenograft, ODSH 24 mg/kg BID, oxaliplatin 10 mg/kg, gemcitabine 80 mg/kg, nab-paclitaxel 15 mg/kg (Table 1)",18.2%
same,Day 26 Tumor Weight,"Table 14, treatment administered until Day 26",616.2 ± 50.9 mg
same,Day 26 Tumor Weight,"Table 15, treatment administered until Day 35",1270.1 ± 95.5 mg
